Data published in the NIST ThermoML archive (doi:10.1021/je030147g).
± gives the expanded uncertainty stated by the source.

Assays:
[1] = refractive index (Na D-line) (dimensionless); xn = mol fraction of the nth substance listed; settings: 101.33 kPa, Liquid
[2] = xn = mol fraction of the nth substance listed; settings: 101.33 kPa, Liquid

ClC=C(Cl)Cl [trichloroethene] + CCCCN(CCCC)CCCC
Settings	mass density, 298.15 K [kg/m3]	mass density, 303.15 K [kg/m3]	mass density, 308.15 K [kg/m3]	refractive index, 298.15 K	refractive index, 303.15 K	refractive index, 308.15 K	speed of sound, 298.15 K [m/s]	viscosity, 298.15 K [mPa·s]	viscosity, 303.15 K [mPa·s]	viscosity, 308.15 K [mPa·s]
[1], x2 = 0	–	–	–	1.4752 ± 0.0012	1.4722 ± 0.0012	1.469 ± 0.0012	–	–	–	–
[1], x2 = 0.0996	–	–	–	1.4632 ± 0.0012	1.4604 ± 0.0012	1.4576 ± 0.0012	–	–	–	–
[1], x2 = 0.1953	–	–	–	1.4563 ± 0.0012	1.453 ± 0.0012	1.4495 ± 0.0012	–	–	–	–
[1], x2 = 0.2913	–	–	–	1.4502 ± 0.0012	1.4469 ± 0.0012	1.4436 ± 0.0012	–	–	–	–
[1], x2 = 0.3902	–	–	–	1.4448 ± 0.0012	1.4417 ± 0.0012	1.4386 ± 0.0012	–	–	–	–
[1], x2 = 0.4875	–	–	–	1.4402 ± 0.0012	1.4377 ± 0.0012	1.4352 ± 0.0012	–	–	–	–
[1], x2 = 0.5906	–	–	–	1.437 ± 0.0013	1.4343 ± 0.0013	1.4317 ± 0.0013	–	–	–	–
[1], x2 = 0.6843	–	–	–	1.4346 ± 0.0013	1.4315 ± 0.0013	1.4284 ± 0.0013	–	–	–	–
[1], x2 = 0.7846	–	–	–	1.4318 ± 0.0013	1.4295 ± 0.0013	1.427 ± 0.0013	–	–	–	–
[1], x2 = 0.8835	–	–	–	1.4298 ± 0.0013	1.4272 ± 0.0013	1.4246 ± 0.0013	–	–	–	–
[2], x2 = 0	1456.7 ± 1.6	1447.1 ± 1.6	1439.5 ± 1.7	–	–	–	1028 ± 5	0.595 ± 0.016	0.571 ± 0.016	0.549 ± 0.015
[2], x2 = 0.0996	1299.3 ± 1.4	1291.8 ± 1.5	1284.4 ± 1.5	–	–	–	1054 ± 5	0.652 ± 0.017	0.622 ± 0.017	0.592 ± 0.016
[2], x2 = 0.1953	1186.7 ± 1.3	1180.1 ± 1.3	1173.3 ± 1.3	–	–	–	1084 ± 5	0.713 ± 0.019	0.675 ± 0.018	0.637 ± 0.017
[2], x2 = 0.2913	1098.3 ± 1.2	1092.1 ± 1.2	1086 ± 1.2	–	–	–	1108 ± 5	0.776 ± 0.02	0.73 ± 0.019	0.684 ± 0.018
[2], x2 = 0.3902	1025.1 ± 1.1	1019.6 ± 1.1	1013.9 ± 1.2	–	–	–	1129 ± 5	0.842 ± 0.021	0.788 ± 0.02	0.734 ± 0.019
[2], x2 = 0.4875	966.3 ± 1	961 ± 1	955.8 ± 1.1	–	–	–	1151 ± 5	0.909 ± 0.023	0.846 ± 0.022	0.783 ± 0.02
[2], x2 = 0.5906	914.7 ± 1	909.8 ± 1	904.9 ± 1	–	–	–	1170 ± 5	0.978 ± 0.025	0.907 ± 0.023	0.835 ± 0.021
[2], x2 = 0.6843	875 ± 0.9	870.3 ± 0.9	865.7 ± 1	–	–	–	1187 ± 5	1.041 ± 0.026	0.962 ± 0.024	0.882 ± 0.022
[2], x2 = 0.7846	838.1 ± 0.9	833.7 ± 0.9	829.1 ± 0.9	–	–	–	1205 ± 5	1.105 ± 0.027	1.018 ± 0.025	0.93 ± 0.024
[2], x2 = 0.8835	806.5 ± 0.8	802.2 ± 0.9	797.8 ± 0.9	–	–	–	1227 ± 5	1.167 ± 0.029	1.071 ± 0.027	0.976 ± 0.025

CCN(CC)CC [triethylamine] + CCCCN(CCCC)CCCC
x2 = 0
Settings	mass density, 298.15 K [kg/m3]	mass density, 303.15 K [kg/m3]	mass density, 308.15 K [kg/m3]	refractive index, 298.15 K	refractive index, 303.15 K	refractive index, 308.15 K	speed of sound, 298.15 K [m/s]	viscosity, 298.15 K [mPa·s]	viscosity, 303.15 K [mPa·s]	viscosity, 308.15 K [mPa·s]
[1]	–	–	–	1.3992 ± 0.0012	1.3958 ± 0.0012	1.3929 ± 0.0012	–	–	–	–
[2]	723.3 ± 0.7	718.6 ± 0.7	713.7 ± 0.7	–	–	–	1123 ± 5	0.367 ± 0.011	0.349 ± 0.011	0.332 ± 0.01
